These results are taken from PMC12514971 (Protein science : a publication of the Protein Society, 2025).

The assay concerns the target T1, ADAR1p150 (Zα domain) (Homo sapiens, UniProt P55265).
T1 sequence (P55265 133-199 limits assumed): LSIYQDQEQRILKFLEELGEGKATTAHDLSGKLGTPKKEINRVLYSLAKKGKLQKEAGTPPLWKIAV
The assay can be described thus: MST titration. The assay is classed as binding.

The structures appear in SMILES notation. A value given as a limit tells only on which side of the number the result lay.

`O=C(O)c1cc(=O)c2c(OCC(O)COc3cccc4oc(C(=O)O)cc(=O)c34)cccc2o1` [cromolyn] showed a Kd of over 774 µM.
